Test results reported in publication PMC12856912, “Structure-Guided Semisynthesis of Blasticidin S–Amicetin Chimeras as Selective Ribosome Inhibitors” (Journal of the American Chemical Society, 2026).
In brackets after ≈: the same amount, converted by molar mass. Where two headings read alike, the source gives them in different places.

Columns and labels:
[1] = Cytotoxicity assay (MTS/PMS); format: cell-based; settings: monkey, 24 h treatment, MTS/PMS, average of three biological replicates, read-out: CC50 against Vero cells
Procedure: The potential cytotoxic eff ect of the test compounds was investigated using Vero cells (monkey kidney epitheli al cells) following est ablished protocols.3 Briefly, Vero cells were plated into 96-well plates supplemented with Dulbecco's Modified Eagle Medium (DMEM) containing 10% fetal bovine serum (FBS). The cells were placed in a humidified 37 °C environment for incubation with 5% CO₂ for 24 h to allow proper adherence and growth. Following the incubation period, the culture medium was replaced with fresh DMEM containing serial dilutions of the test compounds, while the v ehicle alon e w as used as a negative control. The treated cells were incubated for an additional 24 h. To assess cell viability, the MTS/PMS reagent was added to each well and incubat ed for 4 h. A microplate reader (S ynergy H1, BioTek, USA) was used to m easure absorbance at 490 nm. Al l experiments wer e cond ucted usingthree biologi cal replicates .
Ta b l e S2. CC50 valuesa (µg/mL) against Vero cells […]
aValues at which the cell viability (normalized to vehicle control) was 50%. […]

[2] = tested on: Methicillin resistant S. aureus (MRSA) USA300; experiment: Antibacterial MIC assay, serial dilution; format: cell-based, Staphylococcus aureus; settings: for Selectivity index (CC50/MIC) MRSA USA300: CC50 Vero cells / MIC; for MIC: Staphylococcus aureus, read-out: MIC Methicillin resistant S. aureus (MRSA) USA300
[3] = tested on: Vancomycin resistant Enterococcus faecium NR-31909 (VRE); experiment: Antibacterial MIC assay, serial dilution; format: cell-based; settings: for Selectivity index (CC50/MIC) VRE NR-31909: CC50 Vero cells / MIC; for MIC: Enterococcus faecium, VRE, 24 h, read-out: MIC Vancomycin resistant Enterococcus faecium NR-31909 (VRE)
Procedure: (§1) Media and solutions were autoclaved or sterile filtered prior to use and mani pulations were carri ed out in a laminar flow hood. Antibacterial t esting was performed in polypropylene 96-well flat bottom plates. The minimal inhibitory concentration of blasticidin S (1) hydrochloride, methyl ester (3) trihydrochloride, P10 (2) tri-T FA , phenet hyl amide (4) tri -T FA , an d blastimidines M 19– 22, A, 29–32, P 37–40, and C 43–46 (salt forms as described in the te xt) were assessed against Staphylococcus aureus ΔNorA, S. aureus ATCC 6538P, methicillin-resistant S. aureus (MRSA) ATCC 43300, Enterococcus faecalis ATCC 29212, vancomycin- resistant Enterococcus, Klebsiella pneumoniae ATCC 29665, Pseudomonas aeruginosa,and Acinetobacter baumannii ATCC 17978 using serial dilutions. Doxycycline (Gold Bio) as a positive control and the vehicle as a negative control. Stock solutions of each compound were prepared at 2.56 mg/mL in 50% DMSO/water and serially diluted in 50% DMSO/water to create master plates. From the master plates, 10 μ L o f each dilution was applied to test plates using a Bravo automated liquid transfer system (Agilent).
(§2) Bacteria previously grown overnight (37 °C, 120–200 RPM), in LB broth were diluted to an OD600 of 0.05 in cation-adjusted Mueller-Hinton broth (CAMHB), grown to an OD600 of ~0.5, and diluted to an OD600 of 0.004 in CAMHB . These diluted cultures were applied to the test plates (190 μL per test well) resulting in final concentrations of the test compounds of 128–1 μg/ m L.
(§3) Growth controls (wells with inoculated media but no vehicle or test compounds) were included to assess any potential toxicity from the vehicle. Th e plates were in cubated at 37 °C for 16–18 h, except fo r VRE and E. faecalis, which w ere in cub ated at 37 °C fo r 24 h. Inh ibition was determined by measuring the optical density at 600 nm (OD60 0) with a Cytation 3 pl ate read er (BioTek). The optical density measurem ents were no rmalized to the positive and negative controls and the vehicle and growth controls were compared and found to b e indistinguishable, indicating no toxicity from […]
(§4) the vehicle used. The MIC was the lowest concentration that inhibited >90% of growth. Two biological replicates were performed in duplicate. MIC values are reported as a range from […]

[4] = tested on: Enterococcus faecalis ATCC 29212; experiment: Antibacterial MIC assay, serial dilution; format: cell-based; settings: for Selectivity index (CC50/MIC) E. faecalis 29212: CC50 Vero cells / MIC; for MIC: Enterococcus faecalis, ATCC 29112 / ATCC 29212, 24 h, read-out: MIC E. faecalis ATCC 29112
Procedure: as §1, §2, §3, §4

Pseudomonas aeruginosa = experiment: Antibacterial MIC assay, serial dilution; format: cell-based; settings: for Selectivity index (CC50/MIC) P. aeruginosa: CC50 Vero cells / MIC; for MIC: Pseudomonas aeruginosa, range from biological replicates, read-out: MIC P. aeruginosa
Procedure: as §1, §2, §3, §4

[5] = tested on: Acinetobacter baumannii ATCC 17978; experiment: Antibacterial MIC assay, serial dilution; format: cell-based; settings: ATCC17978, range from biological replicates
Procedure: as §1, §2, §3, §4

[6] = tested on: Klebsiella pneumoniae ATCC 29665; experiment: Antibacterial MIC assay, serial dilution; format: cell-based; settings: for Selectivity index (CC50/MIC) K. pneumoniae: CC50 Vero cells / MIC; for MIC: Klebsiella pneumoniae, ATCC29665, range from biological replicates, read-out: MIC K. pneumoniae ATCC-29665
Procedure: as §1, §2, §3, §4

[7] = tested on: Vancomycin resistant E. faecalis NR-31972 (VRE); experiment: Antibacterial MIC assay, serial dilution; format: cell-based, Enterococcus faecalis; settings: for Selectivity index (CC50/MIC) VRE NR-31972: CC50 Vero cells / MIC; for MIC: Enterococcus faecalis, VRE, 24 h, read-out: MIC Vancomycin resistant E. faecalis NR-31972 (VRE)
Procedure: as §1, §2, §3, §4

[8] = tested on: Escherichia coli BAA-2452; experiment: Antibacterial MIC assay, serial dilution; format: cell-based; settings: BAA2452, read-out: MIC Escherichia coli BAA-2452
[9] = tested on: Methicillin resistant Staphylococcus epidermidis (MRSE) ATCC 35984 NRS101; experiment: Antibacterial MIC assay, serial dilution; format: cell-based; settings: for Selectivity index (CC50/MIC) MRSE 35984: CC50 Vero cells / MIC; for MIC: Staphylococcus epidermidis, read-out: MIC Methicillin resistant Staphylococcus epidermidis (MRSE) ATCC 35984 NRS101
S. aureus ΔNorA = experiment: Antibacterial MIC assay, serial dilution; format: cell-based, Staphylococcus aureus; settings: for Selectivity index (CC50/MIC) S. aureus ΔNorA: CC50 Vero cells / MIC; for MIC: Staphylococcus aureus, read-out: MIC S. aureus ∆NorA
Procedure: as §1, §2, §3, §4

MRSA ATCC 43300 = experiment: Antibacterial MIC assay, serial dilution; format: cell-based, Staphylococcus aureus; settings: for Selectivity index (CC50/MIC) MRSA 43300: CC50 Vero cells / MIC; for MIC: Staphylococcus aureus, read-out: MIC MRSA ATCC 43300
Procedure: as §1, §2, §3, §4

S. aureus ATCC 6538P = experiment: Antibacterial MIC assay, serial dilution; format: cell-based, Staphylococcus aureus; settings: for Selectivity index (CC50/MIC) S. aureus 6538P: CC50 Vero cells / MIC; for MIC: Staphylococcus aureus, ATCC 6538P / ATCC 6539P, read-out: MIC S. aureus ATCC 6539P
Procedure: as §1, §2, §3, §4

[10] = Vero cells (monkey kidney epithelial cells)

Row | SMILES | Selectivity index (CC50/MIC) MRSA USA300 [2] | MIC [2] [µg/mL] | MIC [3] [µg/mL] | Selectivity index (CC50/MIC) E. faecalis 29212 [4] | MIC [4] [µg/mL] | Selectivity index (CC50/MIC) P. aeruginosa (Pseudomonas aeruginosa) | MIC (Pseudomonas aeruginosa) [µg/mL] | MIC [5] [µg/mL] | MIC [6] [µg/mL] | Selectivity index (CC50/MIC) VRE NR-31972 [7] | MIC [7] [µg/mL] | MIC [8] [µg/mL] | Selectivity index (CC50/MIC) MRSE 35984 [9] | MIC [9] [µg/mL] | Selectivity index (CC50/MIC) S. aureus ΔNorA (S. aureus ΔNorA) | MIC (S. aureus ΔNorA) [µg/mL] | Selectivity index (CC50/MIC) MRSA 43300 (MRSA ATCC 43300) | MIC (MRSA ATCC 43300) [µg/mL] | Selectivity index (CC50/MIC) S. aureus 6538P (S. aureus ATCC 6538P) | MIC (S. aureus ATCC 6538P) [µg/mL] | further results
1 | COC(=O)[C@H]1O[C@@H](n2ccc(NC(=O)c3ccc(N)cc3)nc2=O)C=C[C@@H]1NC(=O)C[C@@H](N)CCN(C)C(=N)N [Blastimidine M2] | 16 | 8 (≈ 14.4 µM) | 128 (≈ 230 µM) | 16 | 8 (≈ 14.4 µM) | <1.0 | > 128 | > 128 | 64 (≈ 115 µM) | 4.0 | 32 (≈ 57.6 µM) | 32 (≈ 57.6 µM) | 7.9 | 16 (≈ 28.8 µM) | 5.9 | 16 to 32 (≈ 28.8 to 57.6 µM) | 7.9 | 16 (≈ 28.8 µM) | 7.9 | 16 (≈ 28.8 µM) | CC50 at 24 h [1]: 126 µg/mL (≈ 227 µM); Selectivity index (CC50/MIC) VRE NR-31909 [3]: 1.0; Selectivity index (CC50/MIC) K. pneumoniae [6]: 2.0
2 | COC(=O)[C@H]1O[C@@H](n2ccc(NC(=O)c3ccc(NC(C)=O)cc3)nc2=O)C=C[C@@H]1NC(=O)C[C@@H](N)CCN(C)C(=N)N [Blastimidine M4] | 3.3 | 64 (≈ 107 µM) | 128 (≈ 214 µM) | 6.6 | 32 (≈ 53.5 µM) | <1.6 | > 128 | > 128 | 32 (≈ 53.5 µM) | 3.3 | 64 (≈ 107 µM) | 64 (≈ 107 µM) | 3.3 | 64 (≈ 107 µM) | 6.6 | 32 (≈ 53.5 µM) | 6.6 | 32 (≈ 53.5 µM) | 9.9 | 16 to 32 (≈ 26.8 to 53.5 µM) | CC50 at 24 h [1, 10]: 210 µg/mL (≈ 351 µM); Selectivity index (CC50/MIC) VRE NR-31909 [3]: 1.6; Selectivity index (CC50/MIC) K. pneumoniae [6]: 6.6
3 | COC(=O)[C@H]1O[C@@H](n2ccc(NC(=O)c3ccc(NC(=O)[C@@](C)(N)CO)cc3)nc2=O)C=C[C@@H]1NC(=O)C[C@@H](N)CCN(C)C(=N)N [Blastimidine M5] | 2.3 | 64 (≈ 97.5 µM) | 16 to 32 (≈ 24.4 to 48.7 µM) | 2.3 | 64 (≈ 97.5 µM) | <1.2 | > 128 | > 128 | 32 to 64 (≈ 48.7 to 97.5 µM) | 2.3 | 64 (≈ 97.5 µM) | 32 (≈ 48.7 µM) | 2.3 | 64 (≈ 97.5 µM) | 2.3 | 64 (≈ 97.5 µM) | 2.3 | 64 (≈ 97.5 µM) | 2.3 | 64 (≈ 97.5 µM) | CC50 at 24 h [1, 10]: 150 µg/mL (≈ 228 µM); Selectivity index (CC50/MIC) VRE NR-31909 [3]: 6.3; Selectivity index (CC50/MIC) K. pneumoniae [6]: 3.5
4 | CN(CC[C@H](N)CC(=O)N[C@H]1C=C[C@H](n2ccc(N)nc2=O)O[C@@H]1C(=O)NCCc1ccccc1)C(=N)N [Blastimidine P1, blasticidin S phenethylamide] | 20 | 8 to 16 (≈ 15.2 to 30.4 µM) | 128 (≈ 244 µM) | 15 | 16 (≈ 30.4 µM) | 2.8 | 64 to 128 (≈ 122 to 244 µM) | > 128 | > 128 | 15 | 16 (≈ 30.4 µM) | > 128 | 59 | 4 (≈ 7.61 µM) | 1.8 | 128 (≈ 244 µM) | 7.3 | 32 (≈ 60.9 µM) | 15 | 16 (≈ 30.4 µM) | CC50 at 24 h [1, 10]: 235 µg/mL (≈ 447 µM); Selectivity index (CC50/MIC) VRE NR-31909 [3]: 1.8
5 | CN(CC[C@H](N)CC(=O)N[C@H]1C=C[C@H](n2ccc(NC(=O)c3ccc(N)cc3)nc2=O)O[C@@H]1C(=O)NCCc1ccccc1)C(=N)N [Blastimidine P2] | >8.0 | 32 (≈ 49.6 µM) | 128 (≈ 199 µM) | >32 | 8 (≈ 12.4 µM) | >2.0 | 128 (≈ 199 µM) | > 128 | > 128 | >16 | 16 (≈ 24.8 µM) | 128 (≈ 199 µM) | >16 | 16 (≈ 24.8 µM) | >32 | 8 (≈ 12.4 µM) | >4.0 | 64 (≈ 99.3 µM) | >12 | 16 to 32 (≈ 24.8 to 49.6 µM) | CC50 at 24 h [1, 10]: > 256 µg/mL; Selectivity index (CC50/MIC) VRE NR-31909 [3]: >2.0
6 | CC(=O)Nc1ccc(C(=O)Nc2ccn([C@H]3C=C[C@H](NC(=O)C[C@@H](N)CCN(C)C(=N)N)[C@@H](C(=O)NCCc4ccccc4)O3)c(=O)n2)cc1 [Blastimidine P4] | >4.0 | 64 (≈ 93.2 µM) | > 128 | >8.0 | 32 (≈ 46.6 µM) | >2.0 | 128 (≈ 186 µM) | > 128 | > 128 | >8.0 | 32 (≈ 46.6 µM) | > 128 | >16 | 16 (≈ 23.3 µM) | >24 | 8 to 16 (≈ 11.6 to 23.3 µM) | >2.0 | 128 (≈ 186 µM) | >8.0 | 32 (≈ 46.6 µM) | CC50 at 24 h [1, 10]: > 256 µg/mL
